Test results: patent publication US9255085B2, “Carboxamide compounds and methods for using the same” (Rigel Pharmaceuticals, Inc., priority 2008, dated 2016)
Values belong to the compound of their own block, whether it stands above or below them.

Molecular target: AMPK
Test: AMPK activation, enzyme-linked immunosorbent assay
Assay type: biochemical
Settings: ELISA
Method: Compounds 1-13 were assayed for their ability to activate AMPK using an enzyme-linked immunosorbent assay.
Compounds 14-16 were assayed for their ability to activate AMPK using an enzyme-linked immunosorbent assay.
Compounds 17-18 were assayed for their ability to activate AMPK using an enzyme-linked immunosorbent assay.
Compounds 19-22 were assayed for their ability to activate AMPK using an enzyme-linked immunosorbent assay.
Compounds 23-26 were assayed for their ability to activate AMPK using an enzyme-linked immunosorbent assay.
Compounds 27-33 were assayed for their ability to activate AMPK using an enzyme-linked immunosorbent assay.
Compounds 34-42 were assayed for their ability to activate AMPK using an enzyme-linked immunosorbent assay.

- EC50 (Table 2): < 100 nM
SMILES: CC(C)(C)OC(=O)N1CCC(NC(=O)c2nc3ccc(OC4CCN(c5ccc(C(F)(F)F)cc5)CC4)cc3o2)CC1 [Compound 1, tert-butyl 4-(6-(1-(4-(trifluoromethyl)phenyl)piperidin-4-yloxy)benzo[d]oxazole-2-carboxamido)piperidine-1-carboxylate]

- EC50 (Table 2): < 100 nM
SMILES: N#Cc1ccc(CN2CCC(NC(=O)c3nc4ccc(OC5CCN(c6ccc(C(F)(F)F)cc6)CC5)cc4o3)CC2)cc1 [Compound 2, N-(1-(4-Cyanobenzyl)piperidin-4-yl)-6-(1-(4-(trifluoromethyl)phenyl)piperidin-4-yloxy)benzo[d]oxazole-2-carboxamide]

- EC50 (Table 2): < 100 nM
SMILES: O=C(NC1CCN(Cc2ccncc2)CC1)c1nc2ccc(OC3CCN(c4ccc(C(F)(F)F)cc4)CC3)cc2o1 [Compound 3, N-(1-(Pyridin-4-ylmethyl)piperidin-4-yl)-6-(1-(4-(trifluoromethyl)phenyl)piperidin-4-yloxy)benzo[d]oxazole-2-carboxamide]

- EC50 (Table 2): < 100 nM
SMILES: O=C(NC1CCN(C(=O)c2ccc(F)cc2)CC1)c1nc2ccc(OC3CCN(c4ccc(C(F)(F)F)cc4)CC3)cc2o1 [Compound 4, N-(1-(4-Fluorobenzoyl)piperidin-4-yl)-6-(1-(4-(trifluoromethyl)phenyl)piperidin-4-yloxy)benzo[d]oxazole-2-carboxamide]

- EC50 (Table 2): 10000 to 100000 nM
SMILES: O=C(NC1CCNCC1)c1nc2ccc(OC3CCN(c4ccc(C(F)(F)F)cc4)CC3)cc2o1 [Compound 5, N-(Piperidin-4-yl)-6-(1-(4-(trifluoromethyl)phenyl)piperidin-4-yloxy)benzo[d]oxazole-2-carboxamide]

- EC50 (Table 2): < 100 nM
SMILES: N#Cc1ccc(C(=O)N2CCC(NC(=O)c3nc4ccc(OC5CCN(c6ccc(C(F)(F)F)cc6)CC5)cc4o3)CC2)cc1 [Compound 6, N-(1-(4-Cyanobenzoyl)piperidin-4-yl)-6-(1-(4-(trifluoromethyl)phenyl)piperidin-4-yloxy)benzo[d]oxazole-2-carboxamide]

- EC50 (Table 2): 100 to 1000 nM
SMILES: O=C(c1nc2ccc(OC3CCN(c4ccc(C(F)(F)F)cc4)CC3)cc2o1)N1CC2CC1CN2Cc1ccncc1 (stereo not drawn) [Compound 8, (5-(pyridin-4-ylmethyl)-2,5-diazabicyclo[2.2.1]heptan-2-yl)(6-(1-(4-(trifluoromethyl)phenyl)piperidin-4-yloxy)benzo[d]oxazol-2-yl)methanone]

- EC50 (Table 2): 100 to 1000 nM
SMILES: NC(=O)c1ccc(CN2CC3CC2CN3C(=O)c2nc3ccc(OC4CCN(c5ccc(C(F)(F)F)cc5)CC4)cc3o2)cc1 (stereo not drawn) [Compound 9, 4-((5-(6-(1-(4-(Trifluoromethyl)phenyl)piperidin-4-yloxy)benzo[d]oxazole-2-carbonyl)-2,5-diazabicyclo[2.2.1]heptan-2-yl)methyl)benzamide]

- EC50 (Table 2): 100 to 1000 nM
SMILES: N#Cc1ccc(CN2CC3CC2CN3C(=O)c2nc3ccc(OC4CCN(c5ccc(C(F)(F)F)cc5)CC4)cc3o2)cc1 (stereo not drawn) [Compound 10, 4-((5-(6-(1-(4-(Trifluoromethyl)phenyl)piperidin-4-yloxy)benzo[d]oxazole-2-carbonyl)-2,5-diazabicyclo[2.2.1]heptan-2-yl)methyl)benzonitrile]

- EC50 (Table 2): 100 to 1000 nM
SMILES: O=C(c1ccncc1)N1CC2CC1CN2C(=O)c1nc2ccc(OC3CCN(c4ccc(C(F)(F)F)cc4)CC3)cc2o1 (stereo not drawn) [Compound 11, (5-Isonicotinoyl-2,5-diazabicyclo[2.2.1]heptan-2-yl)(6-(1-(4-(trifluoromethyl)phenyl)piperidin-4-yloxy)benzo[d]oxazol-2-yl)methanone]

- EC50 (Table 2): < 100 nM
SMILES: N#Cc1ccc(C(=O)N2CC3CC2CN3C(=O)c2nc3ccc(OC4CCN(c5ccc(C(F)(F)F)cc5)CC4)cc3o2)cc1 (stereo not drawn) [Compound 12, 4-(5-(6-(1-(4-(trifluoromethyl)phenyl)piperidin-4-yloxy)benzo[d]oxazole-2-carbonyl)-2,5-diazabicyclo[2.2.1]heptane-2-carbonyl)benzonitrile]

- EC50 (Table 2): < 100 nM
SMILES: O=C(c1ccc(F)cc1)N1CC2CC1CN2C(=O)c1nc2ccc(OC3CCN(c4ccc(C(F)(F)F)cc4)CC3)cc2o1 (stereo not drawn) [Compound 13, (5-(4-fluorobenzoyl)-2,5-diazabicyclo[2.2.1]heptan-2-yl)(6-(1-(4-(trifluoromethyl)phenyl)piperidin-4-yloxy)benzo[d]oxazol-2-yl)methanone]

- EC50 (Table 3): 1000 to 10000 nM
SMILES: CC(C)(C)OC(=O)N1CCC(NC(=O)c2nc3ccc(OC4CCN(c5ccc(C(F)(F)F)cc5)CC4)cc3s2)CC1 [Compound 14, tert-butyl 4-(6-(1-(4-(trifluoromethyl)phenyl)piperidin-4-yloxy)benzo[d]thiazole-2-carboxamido)piperidine-1-carboxylate]

- EC50 (Table 3): 100 to 1000 nM
SMILES: O=C(NC1CCN(Cc2ccncc2)CC1)c1nc2ccc(OC3CCN(c4ccc(C(F)(F)F)cc4)CC3)cc2s1 [Compound 15, N-(1-(Pyridin-4-ylmethyl)piperidin-4-yl)-6-(1-(4-(trifluoromethyl)phenyl)piperidin-4-yloxy)benzo[d]thiazole-2-carboxamide]

- EC50 (Table 3): 100 to 1000 nM
SMILES: N#Cc1ccc(CN2CCC(NC(=O)c3nc4ccc(OC5CCN(c6ccc(C(F)(F)F)cc6)CC5)cc4s3)CC2)cc1 [Compound 16, N-(1-(4-Cyanobenzyl)piperidin-4-yl)-6-(1-(4-(trifluoromethyl)phenyl)piperidin-4-yloxy)benzo[d]thiazole-2-carboxamide]

- EC50 (Table 4): < 100 nM
SMILES: O=C(NC1CCN(Cc2ccncc2)CC1)c1cn2ccc(OC3CCN(c4ccc(C(F)(F)F)cc4)CC3)cc2n1 [Compound 17, N-(1-(Pyridin-4-ylmethyl)piperidin-4-yl)-7-(1-(4-(trifluoromethyl)phenyl)piperidin-4-yloxy)imidazo[1,2-a]pyridine-2-carboxamide]

- EC50 (Table 4): < 100 nM
SMILES: N#Cc1ccc(CN2CCC(NC(=O)c3cn4ccc(OC5CCN(c6ccc(C(F)(F)F)cc6)CC5)cc4n3)CC2)cc1 [Compound 18, N-(1-(4-Cyanobenzyl)piperidin-4-yl)-7-(1-(4-(trifluoromethyl)phenyl)piperidin-4-yloxy)imidazo[1,2-a]pyridine-2-carboxamide]

- EC50 (Table 5): 1000 to 10000 nM
SMILES: CC(C)(C)OC(=O)N1CCC(NC(=O)c2cnc(OC3CCN(c4ccc(C(F)(F)F)cc4)CC3)cn2)CC1 [Compound 19, tert-butyl 4-(5-(1-(4-(trifluoromethyl)phenyl)piperidin-4-yloxy)pyrazine-2-carboxamido)piperidine-1-carboxylate]

- EC50 (Table 5): > 100000 nM
SMILES: O=C(NC1CCNCC1)c1cnc(OC2CCN(c3ccc(C(F)(F)F)cc3)CC2)cn1 [Compound 20, N-(piperidin-4-yl)-5-(1-(4-(trifluoromethyl)phenyl)piperidin-4-yloxy)pyrazine-2-carboxamide]

- EC50 (Table 5): < 100 nM
SMILES: O=C(NC1CCN(Cc2ccncc2)CC1)c1cnc(OC2CCN(c3ccc(C(F)(F)F)cc3)CC2)cn1 [Compound 21, N-(1-(Pyridin-4-ylmethyl)piperidin-4-yl)-5-(1-(4-(trifluoromethyl)phenyl)piperidin-4-yloxy)pyrazine-2-carboxamide]

- EC50 (Table 5): < 100 nM
SMILES: N#Cc1ccc(CN2CCC(NC(=O)c3cnc(OC4CCN(c5ccc(C(F)(F)F)cc5)CC4)cn3)CC2)cc1 [Compound 22, N-(1-(4-Cyanobenzyl)piperidin-4-yl)-5-(1-(4-(trifluoromethyl)phenyl)piperidin-4-yloxy)pyrazine-2-carboxamide]

- EC50 (Table 6): < 100 nM
SMILES: N#Cc1ccc(CN2CCC(NC(=O)c3cnc(OC4CCN(c5ccc(C(F)(F)F)cc5)CC4)s3)CC2)cc1 [Compound 23, N-(1-(4-cyanobenzyl)piperidin-4-yl)-2-(1-(4-(trifluoromethyl)phenyl)piperidin-4-yloxy)thiazole-5-carboxamide]

- EC50 (Table 6): < 100 nM
SMILES: N#Cc1ccc(CN2CCC(NC(=O)c3cnc(OC4CCN(c5ccc(C#N)cc5)CC4)s3)CC2)cc1 [Compound 24, N-(1-(4-Cyanobenzyl)piperidin-4-yl)-2-(1-(4-cyanophenyl)piperidin-4-yloxy)thiazole-5-carboxamide]

- EC50 (Table 6): < 100 nM
SMILES: N#Cc1ccc(CN2CCC(NC(=O)c3cnc(OC4CCN(Cc5ccc(C(F)(F)F)cc5)CC4)s3)CC2)cc1 [Compound 25, N-(1-(4-Cyanobenzyl)piperidin-4-yl)-2-(1-(4-(trifluoromethyl)benzyl)piperidin-4-yloxy)thiazole-5-carboxamide]

- EC50 (Table 6): 1000 to 10000 nM
SMILES: CC(C)(C)OC(=O)N1CCC(Oc2ncc(C(=O)NC3CCN(Cc4ccc(C#N)cc4)CC3)s2)CC1 [Compound 26, tert-Butyl 4-(5-(1-(4-cyanobenzyl)piperidin-4-ylcarbamoyl)thiazol-2-yloxy)piperidine-1-carboxylate]

- EC50 (Table 7): < 100 nM
SMILES: N#Cc1ccc(CN2CCC(NC(=O)c3ccc(C(=O)N4CCN(Cc5ccc(Cl)cc5)CC4)cc3)CC2)cc1 [Compound 28, 4-(4-(4-Chlorobenzyl)piperazine-1-carbonyl)-N-(1-(4-cyanobenzyl)piperidin-4-yl)benzamide]

- EC50 (Table 7): 10000 to 100000 nM
SMILES: N#Cc1ccc(CN2CCC(NC(=O)c3ccc(C(=O)N4CCN(c5ccc(Cl)cc5)CC4)cc3)CC2)cc1 [Compound 29, 4-(4-(4-Chlorophenyl)piperazine-1-carbonyl)-N-(1-(4-cyanobenzyl)piperidin-4-yl)benzamide]

- EC50 (Table 7): < 100 nM
SMILES: N#Cc1ccc(CN2CCC(NC(=O)c3ccc(C(=O)N4CCN(c5ccc(C(F)(F)F)cn5)CC4)cc3)CC2)cc1 [Compound 30, N-(1-(4-Cyanobenzyl)piperidin-4-yl)-4-(4-(5-(trifluoromethyl)pyridin-2-yl)piperazine-1-carbonyl)benzamide]

- EC50 (Table 7): < 100 nM
SMILES: N#Cc1ccc(CN2CCC(NC(=O)c3ccc(C(=O)NC4CCN(Cc5ccc(C(F)(F)F)cc5)CC4)cc3)CC2)cc1 [Compound 31, N^1-(1-(4-Cyanobenzyl)piperidin-4-yl)-N^4-(1-(4-(trifluoromethyl)benzyl)piperidin-4-yl)terephthalamide]

- EC50 (Table 7): 10000 to 100000 nM
SMILES: N#Cc1ccc(CN2CCC(NC(=O)c3ccc(C(=O)NC4CCN(c5ccccc5)CC4)cc3)CC2)cc1 [Compound 32, N^1-(1-(4-Cyanobenzyl)piperidin-4-yl)-N^4-(1-phenylpiperidin-4-yl)terephthalamide]
